# Laboratory results taken from a melting point compilation (Tetko et al.; mined from patent text by program, amines drawn as free bases though some values may be those of a salt).
row,SMILES,melting point
1,Cn1c(NCCCCCC(=O)O)c(NC=O)c(=O)n(C)c1=O,152 to 153 °C
2,Cc1noc(NS(=O)(=O)c2ccccc2-c2ccc(CC(C)C)cc2CNC=O)c1C,78 to 83 °C
3,O=C(Cc1ccc(F)cc1)Nc1ccc(-n2nc(C(F)(F)F)cc2C2CC2)cc1,135 to 140 °C
4,Cc1cc(CCCCCCCc2ccc(C#N)cc2)on1,61 °C
5,Cc1[nH]c(=O)n(-c2cc(C(=O)OC(C)C)c(Cl)cc2F)c(=O)c1[N+](=O)[O-],202 to 205 °C
6,NC(=O)CN1CCC(c2nn(-c3ccc(C(F)(F)F)cc3)c3cc(F)ccc23)CC1,174 to 176 °C
7,C[C@]1(COC(=O)N2CCC(Oc3ccc(C(F)(F)F)cc3)CC2)Cn2cc([N+](=O)[O-])nc2O1,165 to 166 °C
8,CCOC(=O)c1sc2ncccc2c1Br,100 to 102 °C
9,COCCOc1ccc(COC(=O)NS(=O)(=O)NCC(C)C)c(Oc2ncc(C(F)(F)F)cc2Cl)c1,160 to 161 °C
10,O=c1[nH]cnc2cc(Cl)sc12,238 to 239 °C
11,COC(=O)c1cc2cc(OC)c(OC)cc2c(-c2ccnc(-n3c(=O)cc(C(=O)N4CCOCC4)c4ccccc43)c2)c1C(=O)OC,247 to 249 °C
12,Cc1nc2ccccn2c(=O)c1CCN1CCC(c2noc3cc(F)ccc23)CC1,170 °C
13,COc1ccccc1-c1nc(N)ncc1-c1ccc(=O)[nH]n1,273 °C
14,COC(=O)c1cn(C)cn1,72.5 to 81 °C
15,CCOc1c(CCl)c(CCl)c(OCC)c2ccccc12,110 °C
16,COC(=O)C1=C(C)Nc2nc(N)nc(N)c2C1c1ccccc1F (stereo unspecified),208 °C
17,Cc1ccccc1Cn1cnc(C#N)c1C#N,80 to 81 °C
18,Cc1nc2ccccc2c(=O)n1-c1nnn[nH]1,225 to 226 °C
19,COc1ccc(C(=O)Nc2ccc(C(C)(C)C#N)cc2)c(Cl)c1OC,195 to 198 °C
20,COc1ccc(C(=O)Oc2ccccc2)cc1Nc1ccccc1,130 to 131 °C
21,O=C(Cc1ccc(F)cc1)N1C(=O)OC[C@@H]1Cc1ccccc1,64 to 66 °C

row,SMILES,melting point
1,CC(C)[C@@H](N)C(=O)NCC(F)(F)F,43 to 47 °C
2,CSCn1c(C(F)(F)F)nc2c(Br)cc(C(F)(F)F)cc21,56 to 60 °C
3,O=Cc1ccc(Cl)cc1O,47 to 48 °C
4,O=C1Cc2c([nH]c3ccc([N+](=O)[O-])cc23)-c2cc(Br)ccc2N1,> 330 °C
5,O=C(O)C(=O)c1ccc(OCCOc2ccc([N+](=O)[O-])cc2)cc1,129 to 130 °C
6,COc1cc2cc[nH]c2cc1OCCCCl,73 to 75 °C
7,Cc1ccccc1CCNC(=O)c1ccc(Cl)cc1,95 to 96 °C
8,Cc1c(NC(=O)c2ccc(OC[C@@H]3CCCO3)cc2)ccc2cc(CNCC3(C)COC3)cnc12,117 to 119 °C
9,COc1cc(Nc2c(C#N)cnc3cc(-c4ccc(CN5CCCCC5)s4)ccc23)c(Cl)cc1Cl,155 to 160 °C
10,Cc1ccc(CC2(O)CCN(CC3Cc4cc(O)ccc4N3)CC2)cc1 (racemic),90 to 94 °C
11,COC(=O)c1c(C)c(OC)cc(OC)c1C=O,164 to 165 °C
12,O=C(O)c1ccc(NCCCCCc2ccccc2)cc1,141 to 143 °C
13,CCOC(=O)C1=C(C)NC(CSc2ccccc2)=C(C(=O)OCC)C1c1cccc([N+](=O)[O-])c1 (stereo unspecified),92 to 94 °C
14,O=C(O)CC1(CCCCCCCCC2(CC(=O)O)CC2)CC1,101 °C
15,Cc1nc2ccccc2nc1S(=O)Cc1ccccn1 (stereo unspecified),85 to 88 °C
16,N#Cc1c(-c2ccccc2)c(-c2ccccc2)nn(CCO)c1=O,197 to 198 °C
17,Cn1c(C(F)(F)F)cc(=O)n(-c2ccc(Cl)c3c2OC(C)(C)C3)c1=O,152 to 153 °C
18,N#CCc1nc(C(=O)c2ccc(F)cc2)no1,78 to 80 °C
19,COc1ccc(S(=O)(=O)C2(C(=O)O)CCN(Cc3ccc(Br)cc3)CC2)cc1,215 °C
20,O=S(=O)(Nc1cccc(CCOCc2sc3ccccc3c2Cl)c1)C(F)(F)F,85 to 87 °C
